Experimental data taken from ChEMBL document CHEMBL4483862, “Open-source discovery of chemical leads for next-generation chemoprotective antimalarials” (2018).
pIC50: −log10 of the molar value.

Test system: Plasmodium berghei
Test: Luciferase/luciferin-expressing antifolate-resistant parasites were used to infect a culture of HepG2 cells that were pre-incubated with compounds. Infected hepatocytes emit light due to the luciferase reaction. Assay results are presented as the percent inhibition of light emission compared to control. […]
Type: functional
Settings: sporozoite; for IC90: read-out: LUCIFERASE INFECTION ASSAY - IC90
[1] = read-out: LUCIFERASE INFECTION ASSAY - IC50

Structure (SMILES)	IC90 [µM]	pIC50 [1]	further results
COc1cc(-c2cnn3ccc(Nc4ccc(C(C)C)cc4)nc23)cc(OC)c1OC	4.97		pIC50 (HEPG2TOX_HILL_SLOPE 4.98, HEPG2TOX_R_SQUARED 0.891, PBLUC_HILL_SLOPE 3.46, PBLUC_R_SQUARED 0.366, read-out: LUCIFERASE INFECTION ASSAY - IC50): 5.58
CNc1snc(C)c1C(=O)N(C)Cc1ccc(OC(F)(F)F)cc1	2.72		pIC50 (HEPG2TOX_HILL_SLOPE 0.114, HEPG2TOX_R_SQUARED 0.0245, PBLUC_HILL_SLOPE 2.54, PBLUC_R_SQUARED 0.592, read-out: LUCIFERASE INFECTION ASSAY - IC50): 5.94
O=C(NC(=O)c1csnn1)Nc1cc(C(F)(F)F)cc(C(F)(F)F)c1	2.08		pIC50 (FFLUC_HILL_SLOPE 15.9, FFLUC_R_SQUARED 0.485, HEPG2TOX_HILL_SLOPE 1.3, HEPG2TOX_R_SQUARED 0.92, PBLUC_HILL_SLOPE 2.07, PBLUC_R_SQUARED 0.679, read-out: LUCIFERASE INFECTION ASSAY - IC50): 6.14
O=C(Nc1c2ccccc2nc2ccccc12)c1[nH]nc2c1CCCC2	4.07		pIC50 (HEPG2TOX_HILL_SLOPE 2.71, HEPG2TOX_R_SQUARED 0.934, PBLUC_HILL_SLOPE 11.2, PBLUC_R_SQUARED 0.297, read-out: LUCIFERASE INFECTION ASSAY - IC50): 5.48
CNc1nc2cnc(Nc3cccc(N(C)C)c3)cc2n1-c1cc(OC)c(OC)c(OC)c1	> 10	< 5.00	
O=C(COC(=O)c1cc(-c2ccc(OC(F)F)cc2)nc2ccccc12)Nc1nnc(-c2ccccc2)o1	> 10	< 5.00	
O=C1COc2cc(C(=O)Oc3ccc4ccccc4c3Br)ccc2N1	> 10	< 5.00	
O=C(NC(=O)c1ccc(F)c(Cl)c1)Nc1nnc(C(F)(F)F)s1	> 8.95		pIC50 (PBLUC_HILL_SLOPE 12, PBLUC_R_SQUARED 0.227, read-out: LUCIFERASE INFECTION ASSAY - IC50): 5.06
COc1cc(-c2cnc3cnc(-c4ccc(N5CCN(C)CC5)nc4)cn23)ccc1O	> 7.92		pIC50 (PBLUC_HILL_SLOPE 8.9, PBLUC_R_SQUARED 0.156, read-out: LUCIFERASE INFECTION ASSAY - IC50): 5.15
O=C(Nc1ccc(OC(F)(F)F)cc1)N1CCN(c2cc(C(F)(F)F)nc3ccccc23)CC1	> 6.81	< 5.17	
CCOC(=O)c1ccsc1NC(=O)CNc1ccc(Br)cc1	> 10		pIC50 (HEPG2TOX_HILL_SLOPE 11.3, HEPG2TOX_R_SQUARED 0.575, read-out: LUCIFERASE INFECTION ASSAY - IC50): < 5.00
CCCN(Cc1nc(-c2ccccc2)c2ccccc2n1)Cc1nc2ccsc2c(=O)[nH]1	> 10	< 5.00	
Cc1ccccc1-c1cn2c(-c3ccc(N(C)C)cc3)cnc2cn1	> 10		
N#Cc1cc(Cl)ccc1N1C(=O)C=CC1=O	> 14.2		pIC50 (FFLUC_HILL_SLOPE 1.82, FFLUC_R_SQUARED 0.838, PBLUC_HILL_SLOPE 13, PBLUC_R_SQUARED 0.372, read-out: LUCIFERASE INFECTION ASSAY - IC50): 4.87
Cc1oc2cc(OCC(=O)N3CCc4ccccc43)ccc2c(=O)c1-c1c(F)cccc1Cl	> 10		pIC50 (FFLUC_HILL_SLOPE 15.3, FFLUC_R_SQUARED 0.621, read-out: LUCIFERASE INFECTION ASSAY - IC50): < 5.00
COc1cc(CCC2CCN(CC(=O)c3c(N)n(C)c(=O)n(C)c3=O)CC2)cc(OC)c1	> 10		pIC50 (PBLUC_HILL_SLOPE 1.27, PBLUC_R_SQUARED 0.409, read-out: LUCIFERASE INFECTION ASSAY - IC50): 5.29
N#CC(Nc1ccc(C(F)(F)F)cc1)c1ccccc1 (stereo unspecified)	> 11.9	< 4.92	
CC(C)(C)c1ccc2nc(/C(=C\c3ccc(F)cc3)NC(=O)c3ccccc3)[nH]c2c1	> 7.98		pIC50 (PBLUC_HILL_SLOPE 14.3, PBLUC_R_SQUARED 0.247, read-out: LUCIFERASE INFECTION ASSAY - IC50): 5.16
CC(C)NC(=S)N/N=C1\C(=O)Nc2ccc(C(C)C)cc21	4.02		pIC50 (FFLUC_HILL_SLOPE 3.36, FFLUC_R_SQUARED 0.392, HEPG2TOX_HILL_SLOPE 1.41, HEPG2TOX_R_SQUARED 0.93, PBLUC_HILL_SLOPE 4.04, PBLUC_R_SQUARED 0.837, read-out: LUCIFERASE INFECTION ASSAY - IC50): 5.63
O=C1OC(C23CC4CC(CC(C4)C2)C3)=N/C1=C\c1ccc(N2CCOCC2)cc1	> 10	< 5.00	
Cc1cccc(-n2cc(-c3ccccc3)c3c(N4CCN(C)CC4)ncnc32)c1	> 10		pIC50 (HEPG2TOX_HILL_SLOPE 7.66, HEPG2TOX_R_SQUARED 0.38, PBLUC_HILL_SLOPE 2.7, PBLUC_R_SQUARED 0.572, read-out: LUCIFERASE INFECTION ASSAY - IC50): 5.18

Structure (SMILES)	IC90 [µM]	pIC50 [1]	further results
COc1cc2nc(SCc3c(C)noc3C)n(CCC3=CCCCC3)c(=O)c2cc1OC	> 10	< 5.00	
N#C/C(=N\Nc1ccc(Cl)cc1)S(=O)(=O)c1ccc(Cl)cc1	3.93		pIC50 (HEPG2TOX_HILL_SLOPE 1.06, HEPG2TOX_R_SQUARED 0.975, PBLUC_HILL_SLOPE 5.18, PBLUC_R_SQUARED 0.893, read-out: LUCIFERASE INFECTION ASSAY - IC50): 5.59
COc1ccc(C(=O)Nc2ccc(N3CCOCC3)cc2)cn1	> 10	< 5.00	
Cc1nn2c(=O)cc(-c3ccccc3)[nH]c2c1-c1ccc(F)cc1	1.16		pIC50 (HEPG2TOX_HILL_SLOPE 1.12, HEPG2TOX_R_SQUARED 0.564, PBLUC_HILL_SLOPE 22.2, PBLUC_R_SQUARED 0.649, read-out: LUCIFERASE INFECTION ASSAY - IC50): 5.98
Cc1ccc(C(CCNCc2ccc(F)cc2)c2ccco2)cc1 (stereo unspecified)	0.384		pIC50 (HEPG2TOX_HILL_SLOPE 46.4, HEPG2TOX_R_SQUARED 0.442, PBLUC_HILL_SLOPE 99.4, PBLUC_R_SQUARED 0.619, read-out: LUCIFERASE INFECTION ASSAY - IC50): 6.42
Oc1ccc(CNC(c2ccc3c(c2)CCC3)c2cccs2)cc1 (stereo unspecified)	> 10	< 5.00	
CCOc1ccc(C(=O)NNC(=O)c2cc(Cl)ccc2O)cc1	> 10		pIC50 (HEPG2TOX_HILL_SLOPE 1.98, HEPG2TOX_R_SQUARED 0.918, PBLUC_HILL_SLOPE 3.04, PBLUC_R_SQUARED 0.138, read-out: LUCIFERASE INFECTION ASSAY - IC50): 5.11
COC(=O)c1c(C)[nH]c(C(=O)CSc2nnc(C)s2)c1C	> 10	< 5.00	
Cc1ccc2c(Cl)cc(Cl)c(OC(=O)C3CC3)c2n1	6.06		pIC50 (HEPG2TOX_HILL_SLOPE 1.04, HEPG2TOX_R_SQUARED 0.959, PBLUC_HILL_SLOPE 1.84, PBLUC_R_SQUARED 0.861, read-out: LUCIFERASE INFECTION ASSAY - IC50): 5.74
Cc1noc(C)c1NC(=O)Nc1cc(C(F)(F)F)cc(C(F)(F)F)c1	> 8.99		pIC50 (FFLUC_HILL_SLOPE 4.67, FFLUC_R_SQUARED 0.129, HEPG2TOX_HILL_SLOPE 8.81, HEPG2TOX_R_SQUARED 0.655, PBLUC_HILL_SLOPE 1.82, PBLUC_R_SQUARED 0.142, read-out: LUCIFERASE INFECTION ASSAY - IC50): 5.32
N#C/C(=C\c1ccc(OCc2ccccc2)c(OCc2ccccc2)c1)c1nnc2n1CCCCC2	> 10	< 5.00	
COc1cc(C(=O)OCC(=O)c2ccc(-c3ccccc3)cc2)c([N+](=O)[O-])cc1OC	> 10		pIC50 (PBLUC_HILL_SLOPE 1.3, PBLUC_R_SQUARED 0.199, read-out: LUCIFERASE INFECTION ASSAY - IC50): < 5.00
O=C(Nc1ccc(SC(F)(F)F)cc1)N1CCN(c2nc3ccc(Cl)cc3s2)CC1	> 6.98		pIC50 (HEPG2TOX_HILL_SLOPE 11, HEPG2TOX_R_SQUARED 0.778, PBLUC_HILL_SLOPE 2.23, PBLUC_R_SQUARED 0.377, read-out: LUCIFERASE INFECTION ASSAY - IC50): 5.42
Cc1ccc(-n2c(SCc3c(-c4ccccc4)nc4sccn34)nnc2-c2ccccc2)cc1C	3.83		pIC50 (FFLUC_HILL_SLOPE 2.28, FFLUC_R_SQUARED 0.669, PBLUC_HILL_SLOPE 14.9, PBLUC_R_SQUARED 0.408, read-out: LUCIFERASE INFECTION ASSAY - IC50): 5.48
N#C/C(C(=O)c1ccc([N+](=O)[O-])s1)=C1\Nc2ccccc2S1	> 10		pIC50 (HEPG2TOX_HILL_SLOPE 0.276, HEPG2TOX_R_SQUARED 0.471, PBLUC_HILL_SLOPE 0.885, PBLUC_R_SQUARED 0.549, read-out: LUCIFERASE INFECTION ASSAY - IC50): 6.02
C=CCn1c(-c2ccccc2)cs/c1=N\Nc1ccc([N+](=O)[O-])cc1	> 10		pIC50 (FFLUC_HILL_SLOPE 10.5, FFLUC_R_SQUARED 0.467, read-out: LUCIFERASE INFECTION ASSAY - IC50): < 5.00
NS(=O)(=O)c1ccc(Nc2nc(-c3cc(F)ccc3F)cs2)cc1	> 10		pIC50 (FFLUC_HILL_SLOPE 0.845, FFLUC_R_SQUARED 0.288, PBLUC_HILL_SLOPE 13.0, 1.97, PBLUC_R_SQUARED 0.591, 0.616, read-out: LUCIFERASE INFECTION ASSAY - IC50): 5.05
O=C(Cn1ncc(Cl)c(Cl)c1=O)N1N=C(c2ccco2)CC1c1cccs1 (stereo unspecified)	> 10		pIC50 (FFLUC_HILL_SLOPE 1.67, FFLUC_R_SQUARED 0.501, PBLUC_HILL_SLOPE 2.36, PBLUC_R_SQUARED 0.757, read-out: LUCIFERASE INFECTION ASSAY - IC50): 5.35
O=C(Nc1ccccc1)Nc1ccc2cc(C(=O)c3ccccc3O)cnc2c1	4.81		pIC50 (PBLUC_HILL_SLOPE 1.23, 8.91, PBLUC_R_SQUARED 0.971, 0.189, read-out: LUCIFERASE INFECTION ASSAY - IC50): 5.45
Cn1nc(-c2ccc(/C=N/NC(=O)c3ccc(Cl)cc3Cl)s2)cc1C(F)(F)F	> 7.38	< 5.13	
